Experimental data as given in US20120316199A1, “COMPOSITIONS AND METHODS FOR TREATING, CONTROLLING, REDUCING, OR AMELIORATING INFLAMMATORY PAIN” (priority 2011, published 2012).

Legend:
[1] = system: visual acuity; assay: Clinical study after cataract surgery: Snellen visual acuity (safety); assay type: in vivo, human; conditions: overall
Excerpt: There were 8 treatment groups in this study, consisting of three drug doses, vehicle and three dosing frequencies (see also Table 4-1): • Group A: 1% BOL-303242-X ophthalmic suspension, two times per day (BID) • Group B: 2% BOL-303242-X ophthalmic suspension, one time per day (QD) • Group C: 2% BOL-303242-X ophthalmic suspension, BID • Group D: 2% BOL-303242-X ophthalmic suspension, four times per day (QID) • Group E: 3% BOL-303242-X ophthalmic suspension, QD • Group F: 3% BOL-303242-X ophthalmic suspension, BID • Group G: 3% BOL-303242-X ophthalmic suspension, QID • Group H: Vehicle for BOL-303242-X (divided equally into QID, BID, and QD)
Visit 1 (screening), Visit 2 (cataract surgery), Visit 3 (postoperative Day 1), Visit 4 (postoperative Day 3±1 day), Visit 5 (postoperative Day 8±1 day), Visit 6 (postoperative Day 15±1 day), Visit 7 (postoperative Day 18±1 day). Subject assessments included adverse events (AEs), concomitant medications, ocular symptoms, pinholed Snellen visual acuity (VA), intraocular pressure (IOP), ocular signs (biomicroscopy), fundoscopy, and study drug drop sensation. In addition, subject diaries were collected and reviewed for accuracy and treatment compliance.
Safety: The safety endpoints in this study were: incidence of AEs, change in IOP, ocular signs (biomicroscopy), Snellen VA, fundoscopy, study drug drop sensation assessment.

[2] = system: intraocular pressure (IOP); assay: Intraocular pressure in New Zealand White rabbits, topical dosing four times daily; assay type: in vivo; conditions: for Intraocular Pressure, MEAN: A.M. readings
Experimental: On Days 1-31, animals received daily topical doses of the appropriate test article into the right eye. Animals were dosed four times per day, with doses administered 2 hours apart. Doses were administered using a calibrated 50-μL pipette. The eyelids were held close for 10 seconds immediately following dosing. The time of each dose administration was recorded.
Intraocular pressure (“IOP”) was determined for both eyes of each animal on Days 3, 5, 10, 12, 16, 18, 22, 24, 26, 30, and 32. IOP was evaluated with a Medtronic Solan, Model 30 classic pneumatonometer. Proparacaine hydrochloride 0.5% (1 drop) was delivered to each eye prior to IOP measurement. IOP was measured on Monday. Wednesday, and Friday of each week. A two-point diurnal curve was established: IOP was recorded at 8 a.m. and 12 p.m. on Day 3, and at 8 a.m. and 2 p.m. on later days, with a ±1 hour range for each of these times. The time of the measurements was recorded.
Descriptive statistics were prepared for IOP data of each treatment group (left and right eyes separately) at each measurement interval. The statistics included the number of observations (“N”) mean, standard deviation (“STD”), and standard error (“SEM”). Statistical analyses were conducted on IOP results using Statistical Analysis Systems (SAS Institute. Inc., Cary, N.C. V8.0). Parameters were evaluated using analysis of variance/GLM Procedure followed by Tukey's Standardized Range Test (Tukey, 1985) for post hoc comparisons of group means. The level of significance was set at a probability of p<0.05 for all statistical procedures. Group IOP means were compared at each interval, with left and right eyes compared separately.

Cc1ccc2c(NC[C@](O)(CC(C)(C)c3cc(F)cc4c3OCC4)C(F)(F)F)cccc2n1 [BOL-303242-X, mapracorat]
subjects whose VA did not decline by two lines or more [1]: more than 92%
Differences in mean IOP versus BSS group ([2]; BOL-303242-X groups B-D (10, 5, 1 mg/g), p<0.05): No statistically significant (p<0.05) differences
Effect of daily dosing on IOP compared to daily dosing with dexamethasone ([2]; BOL-303242-X suspensions 0.05, 0.25, 0.5 mg/dose, four times daily up to 31 days): did not increase IOP
Course of mean IOP after treatment began ([2]; left and right eyes, dexamethasone 0.1% (Group A), BOL-303242-X 10, 5, 1 mg/g (Groups B-D), four times daily): not seen
Intraocular Pressure, MEAN ([2]; treated right eyes, Day 3, 1 mg/g (Group D)): 23.0 mmHg
Intraocular Pressure, MEAN ([2]; treated right eyes, Day 3, 5 mg/g (Group C)): 23.7 mmHg
Intraocular Pressure, MEAN ([2]; treated right eyes, Day 3, 10 mg/g (Group B)): 22.7 mmHg
Intraocular Pressure, MEAN ([2]; treated right eyes, Day 5, 1 mg/g (Group D)): 24.7 mmHg
Intraocular Pressure, MEAN ([2]; treated right eyes, Day 5, 5 mg/g (Group C)): 24.7 mmHg
Intraocular Pressure, MEAN ([2]; treated right eyes, Day 5, 10 mg/g (Group B)): 23.8 mmHg
Intraocular Pressure, MEAN ([2]; treated right eyes, Day 10, 1 mg/g (Group D)): 24.8 mmHg
Intraocular Pressure, MEAN ([2]; treated right eyes, Day 10, 5 mg/g (Group C)): 25.2 mmHg
Intraocular Pressure, MEAN ([2]; treated right eyes, Day 10, 10 mg/g (Group B)): 24.5 mmHg
Intraocular Pressure, MEAN ([2]; treated right eyes, Day 12, 1 mg/g (Group D)): 23.4 mmHg
Intraocular Pressure, MEAN ([2]; treated right eyes, Day 12, 5 mg/g (Group C)): 25.0 mmHg
Intraocular Pressure, MEAN ([2]; treated right eyes, Day 12, 10 mg/g (Group B)): 23.9 mmHg
Intraocular Pressure, MEAN ([2]; treated right eyes, Day 16, 1 mg/g (Group D)): 22.1 mmHg
Intraocular Pressure, MEAN ([2]; treated right eyes, Day 16, 5 mg/g (Group C)): 24.3 mmHg
Intraocular Pressure, MEAN ([2]; treated right eyes, Day 16, 10 mg/g (Group B)): 23.4 mmHg
Intraocular Pressure, MEAN ([2]; treated right eyes, Day 18, 1 mg/g (Group D)): 23.7 mmHg
Intraocular Pressure, MEAN ([2]; treated right eyes, Day 18, 5 mg/g (Group C)): 23.9 mmHg
Intraocular Pressure, MEAN ([2]; treated right eyes, Day 18, 10 mg/g (Group B)): 22.3 mmHg
Intraocular Pressure, MEAN ([2]; treated right eyes, Day 22, 1 mg/g (Group D)): 23.2 mmHg
Intraocular Pressure, MEAN ([2]; treated right eyes, Day 22, 5 mg/g (Group C)): 22.4 mmHg
Intraocular Pressure, MEAN ([2]; treated right eyes, Day 22, 10 mg/g (Group B)): 22.4 mmHg
Intraocular Pressure, MEAN ([2]; treated right eyes, Day 24, 1 mg/g (Group D)): 22.1 mmHg
Intraocular Pressure, MEAN ([2]; treated right eyes, Day 24, 5 mg/g (Group C)): 23.8 mmHg
Intraocular Pressure, MEAN ([2]; treated right eyes, Day 24, 10 mg/g (Group B)): 21.2 mmHg
Intraocular Pressure, MEAN ([2]; treated right eyes, Day 26, 1 mg/g (Group D)): 23.1 mmHg
Intraocular Pressure, MEAN ([2]; treated right eyes, Day 26, 5 mg/g (Group C)): 22.1 mmHg
Intraocular Pressure, MEAN ([2]; treated right eyes, Day 26, 10 mg/g (Group B)): 21.8 mmHg
Intraocular Pressure, MEAN ([2]; treated right eyes, Day 30, 1 mg/g (Group D)): 24.2 mmHg
Intraocular Pressure, MEAN ([2]; treated right eyes, Day 30, 5 mg/g (Group C)): 22.9 mmHg
Intraocular Pressure, MEAN ([2]; treated right eyes, Day 30, 10 mg/g (Group B)): 22.7 mmHg
Intraocular Pressure, MEAN ([2]; treated right eyes, Day 32, 1 mg/g (Group D)): 24.9 mmHg
Intraocular Pressure, MEAN ([2]; treated right eyes, Day 32, 5 mg/g (Group C)): 23.4 mmHg
Intraocular Pressure, MEAN ([2]; treated right eyes, Day 32, 10 mg/g (Group B)): 23.9 mmHg
Intraocular Pressure, MEAN ([2]; treated right eyes, Pre-Study, 1 mg/g (Group D)): 24.4 mmHg
Intraocular Pressure, MEAN ([2]; treated right eyes, Pre-Study, 5 mg/g (Group C)): 24.8 mmHg
Intraocular Pressure, MEAN ([2]; treated right eyes, Pre-Study, 10 mg/g (Group B)): 24.0 mmHg
Intraocular Pressure, MEAN ([2]; untreated left eyes, Day 3, 1 mg/g (Group D)): 23.5 mmHg
Intraocular Pressure, MEAN ([2]; untreated left eyes, Day 3, 5 mg/g (Group C)): 23.8 mmHg
Intraocular Pressure, MEAN ([2]; untreated left eyes, Day 3, 10 mg/g (Group B)): 23.3 mmHg
Intraocular Pressure, MEAN ([2]; untreated left eyes, Day 5, 1 mg/g (Group D)): 24.4 mmHg
Intraocular Pressure, MEAN ([2]; untreated left eyes, Day 5, 5 mg/g (Group C)): 24.4 mmHg
Intraocular Pressure, MEAN ([2]; untreated left eyes, Day 5, 10 mg/g (Group B)): 23.4 mmHg
Intraocular Pressure, MEAN ([2]; untreated left eyes, Day 10, 1 mg/g (Group D)): 24.5 mmHg
Intraocular Pressure, MEAN ([2]; untreated left eyes, Day 10, 5 mg/g (Group C)): 24.6 mmHg
Intraocular Pressure, MEAN ([2]; untreated left eyes, Day 10, 10 mg/g (Group B)): 24.0 mmHg
Intraocular Pressure, MEAN ([2]; untreated left eyes, Day 12, 1 mg/g (Group D)): 22.2 mmHg
Intraocular Pressure, MEAN ([2]; untreated left eyes, Day 12, 5 mg/g (Group C)): 23.8 mmHg
Intraocular Pressure, MEAN ([2]; untreated left eyes, Day 12, 10 mg/g (Group B)): 23.8 mmHg
